Laboratory results from US7074789B2, “Kinase inhibitors” (Amgen Inc., priority 1999, dated 2006).

Experiments:
Assay type in all cases: biochemical
Lck = molecular target: T1, Lck (Homo sapiens, UniProt P06239); assay: Kinase inhibition assay (33P transfer), Lck; conditions: read-out: Lck-1
T1 construct: Kinases are expressed as either kinase domains or full length constructs; made in house
Outline: (§1)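 Activity was read as 33P incorporation, counted by liquid scintillation after a 0.5% phosphoric acid wash, into poly(Glu,Tyr) 4:1 or poly(Arg,Ser) 3:1 substrates coated on plates. Enzymes were tagged (GST or polyHis) kinase domains or full-length proteins from bacterial or insect-cell expression, sometimes with regulatory polypeptides.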

Zap-70 = molecular target: T2, Zap-70 (Homo sapiens, UniProt P43403); assay: Kinase inhibition assay (33P transfer), Zap-70; conditions: read-out: Zap-1
T2 construct: Kinases are expressed as either kinase domains or full length constructs; made in house
T2 sequence (P43403 1-619): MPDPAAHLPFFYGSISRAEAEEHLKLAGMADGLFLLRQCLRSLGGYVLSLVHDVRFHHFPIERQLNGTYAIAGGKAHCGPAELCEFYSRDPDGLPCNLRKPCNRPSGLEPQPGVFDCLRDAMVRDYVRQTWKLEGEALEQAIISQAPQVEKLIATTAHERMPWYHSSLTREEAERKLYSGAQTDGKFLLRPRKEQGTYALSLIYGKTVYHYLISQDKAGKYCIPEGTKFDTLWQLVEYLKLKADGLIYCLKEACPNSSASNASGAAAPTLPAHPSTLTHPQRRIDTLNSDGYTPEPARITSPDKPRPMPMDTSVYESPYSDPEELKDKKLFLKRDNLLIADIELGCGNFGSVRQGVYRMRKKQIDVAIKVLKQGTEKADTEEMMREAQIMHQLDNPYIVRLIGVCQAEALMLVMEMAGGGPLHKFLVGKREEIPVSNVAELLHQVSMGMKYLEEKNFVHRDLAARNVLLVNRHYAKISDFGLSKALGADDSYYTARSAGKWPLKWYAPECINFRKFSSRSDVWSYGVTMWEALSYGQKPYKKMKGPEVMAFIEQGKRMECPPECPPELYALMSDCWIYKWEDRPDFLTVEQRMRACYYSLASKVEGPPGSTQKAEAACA
Outline: as §1

Itk = molecular target: T3, Itk (Homo sapiens, UniProt Q08881); assay: Kinase inhibition assay (33P transfer), Itk; conditions: read-out: Itk-1
T3 construct: Kinases are expressed as either kinase domains or full length constructs; made in house
T3 sequence (Q08881 1-620): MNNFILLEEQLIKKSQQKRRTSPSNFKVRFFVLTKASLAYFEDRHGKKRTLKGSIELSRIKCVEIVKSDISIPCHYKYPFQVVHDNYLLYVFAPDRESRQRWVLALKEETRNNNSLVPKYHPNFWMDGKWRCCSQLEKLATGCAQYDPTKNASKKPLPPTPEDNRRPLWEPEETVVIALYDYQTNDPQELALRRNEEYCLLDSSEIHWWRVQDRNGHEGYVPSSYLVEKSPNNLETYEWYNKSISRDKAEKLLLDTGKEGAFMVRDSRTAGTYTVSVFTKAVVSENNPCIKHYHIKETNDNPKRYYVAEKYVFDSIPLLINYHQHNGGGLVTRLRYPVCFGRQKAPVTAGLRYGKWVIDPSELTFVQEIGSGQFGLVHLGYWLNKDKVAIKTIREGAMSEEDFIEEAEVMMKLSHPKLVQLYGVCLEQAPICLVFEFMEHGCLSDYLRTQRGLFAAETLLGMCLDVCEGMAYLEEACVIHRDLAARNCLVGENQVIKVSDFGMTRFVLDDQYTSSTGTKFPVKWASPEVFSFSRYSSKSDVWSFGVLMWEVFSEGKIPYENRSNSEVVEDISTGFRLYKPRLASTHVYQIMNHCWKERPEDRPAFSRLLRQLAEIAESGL
Outline: (§2)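 GST/His-fusion kinases, E. coli or High Five expressed, affinity purified; 33P-ATP, plate-coated poly(Glu,Tyr) 4:1 or poly(Arg,Ser) 3:1; 0.5% H3PO4 wash, scintillant, LSC.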

EGFR = molecular target: T4, EGFR (Homo sapiens, UniProt P00533); assay: Kinase inhibition assay (33P transfer), EGFR; conditions: Table 2, kinase inhibition class; read-out: EGFR-1
T4 construct: Kinases are expressed as either kinase domains or full length constructs; made in house
Outline: as §2

ErbB2 = molecular target: T5, ErbB2 (Homo sapiens, UniProt P04626); assay: Kinase inhibition assay (33P transfer), ErbB2; conditions: read-out: ErbB2-2
T5 construct: Kinases are expressed as either kinase domains or full length constructs; made in house
Outline: as §2

Kdr = molecular target: T6, Kdr (Homo sapiens, UniProt P35968); assay: Kinase inhibition assay (33P transfer), Kdr; conditions: read-out: KDR-1
T6 construct: Kinases are expressed as either kinase domains or full length constructs; made in house
Outline: as §1

c-Met = molecular target: T7, c-Met (Homo sapiens, UniProt P08581); assay: Kinase inhibition assay (33P transfer), c-Met; conditions: Table 2, kinase inhibition class; read-out: Met-1
T7 construct: Kinases are expressed as either kinase domains or full length constructs; made in house
T7 sequence (P08581 25-1390): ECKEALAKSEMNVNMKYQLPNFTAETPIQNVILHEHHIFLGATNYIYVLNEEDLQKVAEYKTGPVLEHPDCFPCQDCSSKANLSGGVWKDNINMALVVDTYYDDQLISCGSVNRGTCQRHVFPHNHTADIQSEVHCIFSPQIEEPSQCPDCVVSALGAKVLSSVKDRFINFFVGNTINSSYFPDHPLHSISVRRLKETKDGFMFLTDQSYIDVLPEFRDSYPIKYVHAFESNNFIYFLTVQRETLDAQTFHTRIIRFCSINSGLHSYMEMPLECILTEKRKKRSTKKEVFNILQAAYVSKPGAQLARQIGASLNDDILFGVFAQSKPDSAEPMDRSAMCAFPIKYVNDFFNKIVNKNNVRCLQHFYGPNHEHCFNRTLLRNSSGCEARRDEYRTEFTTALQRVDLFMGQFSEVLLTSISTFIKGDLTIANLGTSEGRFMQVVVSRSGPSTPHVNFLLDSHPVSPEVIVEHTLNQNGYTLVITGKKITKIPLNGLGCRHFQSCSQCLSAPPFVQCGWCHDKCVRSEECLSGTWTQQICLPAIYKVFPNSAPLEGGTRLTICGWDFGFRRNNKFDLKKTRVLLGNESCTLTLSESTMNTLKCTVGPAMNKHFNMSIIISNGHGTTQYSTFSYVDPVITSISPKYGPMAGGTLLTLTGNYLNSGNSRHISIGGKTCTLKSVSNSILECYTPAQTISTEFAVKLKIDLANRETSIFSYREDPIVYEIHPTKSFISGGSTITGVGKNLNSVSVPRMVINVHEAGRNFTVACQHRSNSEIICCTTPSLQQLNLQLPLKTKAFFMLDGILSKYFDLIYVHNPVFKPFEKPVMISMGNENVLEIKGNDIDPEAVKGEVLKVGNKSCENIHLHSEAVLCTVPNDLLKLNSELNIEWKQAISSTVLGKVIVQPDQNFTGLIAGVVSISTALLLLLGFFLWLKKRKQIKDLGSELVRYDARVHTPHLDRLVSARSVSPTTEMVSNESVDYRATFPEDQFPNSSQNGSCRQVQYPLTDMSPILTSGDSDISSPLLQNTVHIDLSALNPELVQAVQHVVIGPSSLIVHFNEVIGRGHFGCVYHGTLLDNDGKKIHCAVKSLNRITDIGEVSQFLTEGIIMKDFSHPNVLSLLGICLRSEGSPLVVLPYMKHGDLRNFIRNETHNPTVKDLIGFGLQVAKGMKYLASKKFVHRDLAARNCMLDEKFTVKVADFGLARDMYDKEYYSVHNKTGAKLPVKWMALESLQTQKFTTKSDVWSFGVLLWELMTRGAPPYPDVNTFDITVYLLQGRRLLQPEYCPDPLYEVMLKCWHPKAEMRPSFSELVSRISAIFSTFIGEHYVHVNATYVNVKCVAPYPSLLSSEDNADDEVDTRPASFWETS
Outline: as §2

AKT = molecular target: T8, AKT (Homo sapiens, UniProt Q9Y243); assay: Kinase inhibition assay (33P transfer), AKT; conditions: Table 2, kinase inhibition class; read-out: AKT3-1
T8 construct: Kinases are expressed as either kinase domains or full length constructs; made in house
T8 sequence (Q9Y243 whole entry, the tested form may be a part): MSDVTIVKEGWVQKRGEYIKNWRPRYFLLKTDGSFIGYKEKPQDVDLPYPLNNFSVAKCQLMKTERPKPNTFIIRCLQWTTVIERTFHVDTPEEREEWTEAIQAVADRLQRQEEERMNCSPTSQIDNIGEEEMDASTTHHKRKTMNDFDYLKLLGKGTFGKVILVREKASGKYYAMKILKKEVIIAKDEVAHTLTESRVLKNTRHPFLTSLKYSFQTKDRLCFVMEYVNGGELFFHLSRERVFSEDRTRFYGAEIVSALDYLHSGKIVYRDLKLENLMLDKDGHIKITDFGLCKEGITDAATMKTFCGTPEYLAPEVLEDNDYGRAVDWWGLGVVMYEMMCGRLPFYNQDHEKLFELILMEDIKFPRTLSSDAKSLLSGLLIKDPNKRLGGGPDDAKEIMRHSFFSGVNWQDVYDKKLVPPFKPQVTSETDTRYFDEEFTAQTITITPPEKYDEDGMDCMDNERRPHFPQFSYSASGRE
Outline: as §1

IGFR-1 = molecular target: T9, IGFR-1 (Homo sapiens, UniProt P08069); assay: Kinase inhibition assay, IGFR-1 (Table 2); conditions: Table 2, kinase inhibition class
T9 construct: Kinases are expressed as either kinase domains or full length constructs; made in house
T9 sequence (P08069 31-1367): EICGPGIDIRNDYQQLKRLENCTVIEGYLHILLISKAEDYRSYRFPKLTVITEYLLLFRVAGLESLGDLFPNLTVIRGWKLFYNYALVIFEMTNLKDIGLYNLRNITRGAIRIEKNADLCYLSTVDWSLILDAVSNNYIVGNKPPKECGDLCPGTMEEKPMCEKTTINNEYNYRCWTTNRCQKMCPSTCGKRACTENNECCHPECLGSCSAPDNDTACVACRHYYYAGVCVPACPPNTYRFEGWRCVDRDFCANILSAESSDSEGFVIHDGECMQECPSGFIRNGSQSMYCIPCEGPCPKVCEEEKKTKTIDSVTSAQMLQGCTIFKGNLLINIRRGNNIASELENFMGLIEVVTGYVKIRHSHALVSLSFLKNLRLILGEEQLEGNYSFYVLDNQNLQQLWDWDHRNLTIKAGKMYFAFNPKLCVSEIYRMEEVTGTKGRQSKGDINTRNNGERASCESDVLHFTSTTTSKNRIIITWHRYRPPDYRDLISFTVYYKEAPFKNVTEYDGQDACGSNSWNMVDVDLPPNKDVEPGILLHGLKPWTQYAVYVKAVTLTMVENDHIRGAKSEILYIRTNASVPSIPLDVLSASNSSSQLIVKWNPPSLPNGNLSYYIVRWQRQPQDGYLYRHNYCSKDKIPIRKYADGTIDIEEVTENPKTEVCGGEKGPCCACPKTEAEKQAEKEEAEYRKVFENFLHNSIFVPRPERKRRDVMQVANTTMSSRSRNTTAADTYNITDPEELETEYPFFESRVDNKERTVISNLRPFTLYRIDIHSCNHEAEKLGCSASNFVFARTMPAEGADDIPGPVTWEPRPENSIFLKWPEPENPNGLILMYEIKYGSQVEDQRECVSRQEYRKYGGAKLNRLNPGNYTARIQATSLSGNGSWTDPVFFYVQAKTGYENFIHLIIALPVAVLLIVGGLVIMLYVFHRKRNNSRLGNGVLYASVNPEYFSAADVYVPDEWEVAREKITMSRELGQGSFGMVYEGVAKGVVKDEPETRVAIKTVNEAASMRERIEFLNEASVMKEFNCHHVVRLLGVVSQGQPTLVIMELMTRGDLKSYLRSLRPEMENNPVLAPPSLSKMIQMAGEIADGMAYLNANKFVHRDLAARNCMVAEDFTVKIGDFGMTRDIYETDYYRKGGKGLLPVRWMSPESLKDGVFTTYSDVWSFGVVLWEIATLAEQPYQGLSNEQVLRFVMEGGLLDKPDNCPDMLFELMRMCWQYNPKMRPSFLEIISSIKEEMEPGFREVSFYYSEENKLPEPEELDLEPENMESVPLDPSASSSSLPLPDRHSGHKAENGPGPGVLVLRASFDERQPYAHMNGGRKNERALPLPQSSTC

PDGFRB = molecular target: T10, PDGFRB (Homo sapiens, UniProt P09619); assay: Kinase inhibition assay (33P transfer), PDGFRB; conditions: read-out: PDGFRB-1
T10 construct: Kinases are expressed as either kinase domains or full length constructs; made in house
T10 sequence (P09619 33-1106, species assumed): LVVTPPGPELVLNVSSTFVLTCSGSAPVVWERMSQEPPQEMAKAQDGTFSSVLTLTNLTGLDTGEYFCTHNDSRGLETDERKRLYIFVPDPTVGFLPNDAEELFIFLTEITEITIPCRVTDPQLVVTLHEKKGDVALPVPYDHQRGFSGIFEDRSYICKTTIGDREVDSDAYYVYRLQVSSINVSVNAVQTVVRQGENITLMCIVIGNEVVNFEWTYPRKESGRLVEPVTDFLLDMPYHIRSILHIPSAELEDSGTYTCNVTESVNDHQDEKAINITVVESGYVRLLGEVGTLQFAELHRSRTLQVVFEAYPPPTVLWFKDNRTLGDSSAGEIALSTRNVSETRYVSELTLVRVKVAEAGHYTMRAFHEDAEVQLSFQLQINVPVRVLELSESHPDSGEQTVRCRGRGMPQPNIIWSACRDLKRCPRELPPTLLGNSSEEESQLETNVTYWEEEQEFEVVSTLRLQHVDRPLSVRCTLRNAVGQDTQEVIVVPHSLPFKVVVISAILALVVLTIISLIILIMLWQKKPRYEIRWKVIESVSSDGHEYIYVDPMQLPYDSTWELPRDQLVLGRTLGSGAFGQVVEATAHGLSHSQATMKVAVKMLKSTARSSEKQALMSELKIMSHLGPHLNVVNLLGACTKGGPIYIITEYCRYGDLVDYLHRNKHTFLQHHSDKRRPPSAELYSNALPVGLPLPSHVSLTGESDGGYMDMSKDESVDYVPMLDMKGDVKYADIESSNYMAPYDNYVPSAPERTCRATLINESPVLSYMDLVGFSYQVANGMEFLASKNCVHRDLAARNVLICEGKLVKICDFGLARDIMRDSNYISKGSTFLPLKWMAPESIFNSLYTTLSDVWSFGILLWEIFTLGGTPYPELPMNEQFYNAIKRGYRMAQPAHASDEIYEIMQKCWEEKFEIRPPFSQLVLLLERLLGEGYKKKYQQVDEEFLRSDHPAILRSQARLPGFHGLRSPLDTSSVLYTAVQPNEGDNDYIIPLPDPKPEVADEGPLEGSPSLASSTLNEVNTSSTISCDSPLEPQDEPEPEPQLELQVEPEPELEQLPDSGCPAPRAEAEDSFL

T1 sequence (P06239 whole entry, species assumed, the tested form may be a part): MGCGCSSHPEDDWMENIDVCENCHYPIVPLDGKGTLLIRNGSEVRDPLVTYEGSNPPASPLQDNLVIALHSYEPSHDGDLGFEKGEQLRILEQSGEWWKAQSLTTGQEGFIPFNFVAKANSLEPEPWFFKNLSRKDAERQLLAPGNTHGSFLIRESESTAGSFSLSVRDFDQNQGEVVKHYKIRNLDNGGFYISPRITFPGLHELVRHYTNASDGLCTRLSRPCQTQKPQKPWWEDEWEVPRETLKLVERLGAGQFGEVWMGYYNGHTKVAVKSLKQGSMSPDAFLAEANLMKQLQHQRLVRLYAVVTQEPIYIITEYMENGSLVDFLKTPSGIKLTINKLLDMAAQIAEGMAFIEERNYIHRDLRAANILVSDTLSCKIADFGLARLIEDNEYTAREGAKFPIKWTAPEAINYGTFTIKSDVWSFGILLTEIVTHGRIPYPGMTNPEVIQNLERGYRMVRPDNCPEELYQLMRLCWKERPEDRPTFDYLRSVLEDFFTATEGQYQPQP

SMILES | IC50 (Lck) [µM] | IC50 (Zap-70) [µM] | IC50 (Itk) [µM] | IC50 (EGFR) [µM] | IC50 (ErbB2) [µM] | IC50 (Kdr) [µM] | IC50 (c-Met) [µM] | IC50 (AKT) [µM] | IC50 (IGFR-1) [µM] | IC50 (PDGFRB) [µM]
CN(c1cccc(Cl)c1)c1ncnc(Nc2ccccc2)n1 [Compound 748] | 1.28 to 7.7 | > 14.4 | > 14.4 | < 1.28 | 1.28 to 7.7 | 7.7 to 11.2 | 1.28 to 7.7 | > 14.4 | 7.7 to 11.2 | 1.28 to 7.7
Brc1cccc(Nc2ncnc(Nc3ccc4c(cnn4Cc4ccccc4)c3)n2)c1 [Compound 554] | 5.08 to 7.41 | 7.41 to 9.53 | > 9.53 | < 0.847 | 5.08 to 7.41 | 0.847 to 5.08 | 5.08 to 7.41 | 7.41 to 9.53 | > 9.53 | 7.41 to 9.53
COc1cc(Nc2ncnc(-c3cccnc3Cl)n2)cc(OC)c1OCCN1CCOCC1 [Compound 565] | 0.846 to 5.07 | > 9.52 | > 9.52 | > 9.52 | > 9.52 | 5.07 to 7.4 | > 9.52 | > 9.52 | > 9.52 | 0.846 to 5.07
COc1ccc(Nc2ncnc(N3CCCc4ccc(C)cc43)n2)cc1OC [Compound 567] | 1.06 to 6.36 | > 11.9 | > 11.9 | < 1.06 | 6.36 to 9.27 | < 1.06 | 1.06 to 6.36 | > 11.9 | > 11.9 | 1.06 to 6.36
CN(c1cccc(Cl)c1)c1ncnc(N[C@@H]2CCN(Cc3ccccc3)C2)n1 [Compound 755] | > 11.4 | > 11.4 | > 11.4 | > 11.4 | > 11.4 | > 11.4 | > 11.4 | > 11.4 | > 11.4 | > 11.4
COc1cc(Nc2ncnc(Oc3ccc(OCc4ccccc4)cc3)n2)cc(OC)c1OC [Compound 530] | > 9.77 | > 9.77 | > 9.77 | > 9.77 | > 9.77 | > 9.77 | > 9.77 | > 9.77 | > 9.77 | > 9.77
c1ccc(Cn2ncc3cc(Nc4ncnc(NCc5ccco5)n4)ccc32)cc1 [Compound 728] | > 11.3 | 1.01 to 6.04 | > 11.3 | 1.01 to 6.04 | > 11.3 | 1.01 to 6.04 | 1.01 to 6.04 | > 11.3 | 1.01 to 6.04 | > 11.3
COC(=O)Cc1cccc(Nc2ncnc(Nc3ccc(C)c(O)c3)n2)c1 [Compound 542] | 1.09 to 6.57 | > 12.3 | 1.09 to 6.57 | 1.09 to 6.57 | 1.09 to 6.57 | < 1.09 | 9.58 to 12.3 | > 12.3 | 1.09 to 6.57 | 1.09 to 6.57
CCN(c1cccc(C)c1)c1ncnc(Nc2cc(OC)c(OC)c(OC)c2)n1 [Compound 537] | < 1.01 | > 11.4 | 8.85 to 11.4 | < 1.01 | 1.01 to 6.07 | < 1.01 | 1.01 to 6.07 | > 11.4 | 1.01 to 6.07 | 1.01 to 6.07
c1ccc(CCNc2ncnc(Nc3ccc4c(cnn4Cc4ccccc4)c3)n2)cc1 [Compound 734] | > 10.7 | 5.69 to 8.3 | > 10.7 | > 10.7 | 5.69 to 8.3 | 0.949 to 5.69 | 8.3 to 10.7 | > 10.7 | 5.69 to 8.3 | > 10.7
CN(c1cccc(Cl)c1)c1ncnc(Nc2cccc(Cc3nnn[nH]3)c2)n1 [Compound 720] | 1.02 to 6.09 | 6.09 to 8.89 | > 11.4 | < 1.02 | < 1.02 | 1.02 to 6.09 | < 1.02 | > 11.4 | > 11.4 | 1.02 to 6.09
CN(c1cccc(Cl)c1)c1ncnc(Nc2ccc(S(C)(=O)=O)cc2)n1 [Compound 749] | 1.03 to 6.16 | > 11.5 | > 11.5 | < 1.03 | 1.03 to 6.16 | 6.16 to 8.98 | 1.03 to 6.16 | > 11.5 | > 11.5 | 1.03 to 6.16
COc1cc(Nc2ncnc(N(C)c3ccc(F)c(Cl)c3)n2)cc(OC)c1OC [Compound 710] | < 0.953 | > 10.7 | > 10.7 | < 0.953 | < 0.953 | 0.953 to 5.72 | 0.953 to 5.72 | > 10.7 | 5.72 to 8.34 | 0.953 to 5.72

More lines, now with the values ahead:

IC50 (Lck) [µM] | IC50 (Zap-70) [µM] | IC50 (Itk) [µM] | IC50 (EGFR) [µM] | IC50 (ErbB2) [µM] | IC50 (Kdr) [µM] | IC50 (c-Met) [µM] | IC50 (AKT) [µM] | IC50 (IGFR-1) [µM] | IC50 (PDGFRB) [µM] | SMILES
4.58 to 6.68 | > 8.59 | > 8.59 | 6.68 to 8.59 | 0.764 to 4.58 | 0.764 to 4.58 | > 8.59 | > 8.59 | 6.68 to 8.59 | 4.58 to 6.68 | COc1cc(Nc2ncnc(-n3c(NC4CCCc5ccccc54)nc4ccccc43)n2)cc(OC)c1OC (centres unmarked) [Compound 1043]
0.841 to 5.05 | 5.05 to 7.36 | 0.841 to 5.05 | < 0.841 | < 0.841 | < 0.841 | 0.841 to 5.05 | 0.841 to 5.05 | 0.841 to 5.05 | < 0.841 | c1ccc(CNc2nc3ccccc3n2-c2ncnc(Nc3cccc(Cc4nnn[nH]4)c3)n2)cc1 [Compound 957]
0.839 to 5.04 | 5.04 to 7.35 | 0.839 to 5.04 | 0.839 to 5.04 | 0.839 to 5.04 | < 0.839 | 0.839 to 5.04 | 5.04 to 7.35 | 0.839 to 5.04 | 0.839 to 5.04 | c1ccc(CNc2nc3ccccc3n2-c2ncnc(Nc3cccc(Cc4nnn[nH]4)c3)n2)nc1 [Compound 958]
> 11.6 | > 11.6 | > 11.6 | > 11.6 | > 11.6 | > 11.6 | > 11.6 | > 11.6 | > 11.6 | > 11.6 | COc1ccc(Nc2ncnc(NCCCN3CCN(C)CC3)n2)cc1OC [Compound 786]
0.791 to 4.75 | 0.791 to 4.75 | 0.791 to 4.75 | 0.791 to 4.75 | 4.75 to 6.92 | < 0.791 | 0.791 to 4.75 | 0.791 to 4.75 | 0.791 to 4.75 | 0.791 to 4.75 | COc1ccc(CNc2nc3ccccc3n2-c2ncnc(Nc3cccc(Cc4nnn[nH]4)c3)n2)cc1 [Compound 959]
> 11.2 | > 11.2 | > 11.2 | < 0.999 | > 11.2 | > 11.2 | < 0.999 | > 11.2 | > 11.2 | < 0.999 | CC(=O)N1CCc2cc(Nc3ncnc(N4CCCc5cc(C)ccc54)n3)ccc21 [Compound 764]
1.16 to 6.99 | 10.2 to 13.1 | 1.16 to 6.99 | < 1.16 | 6.99 to 10.2 | 1.16 to 6.99 | 1.16 to 6.99 | 1.16 to 6.99 | < 1.16 | 1.16 to 6.99 | Cc1cccc(Nc2ncnc(Nc3cc(-c4ccccc4)n[nH]3)n2)c1 [Compound 1012]
